According to PMC9851200, “Multiparameter phenotypic screening for endogenous TFEB and TFE3 translocation identifies novel chemical series modulating lysosome function” (Autophagy, 2022):

Legend:
Format in all cases: binding
[1] = target: kinases (KINOMEscan panel) (Homo sapiens, UniProt O43683); details: kinase BUB1; NEW KINOMEscan
[2] = target: kinases (KINOMEscan panel) (Homo sapiens, UniProt P27448); details: MARK3; NEW KINOMEscan
[3] = target: T1, kinases (KINOMEscan panel) (Homo sapiens, UniProt P21709); details: EPHA1; NEW KINOMEscan
T1 sequence (P21709 26-976): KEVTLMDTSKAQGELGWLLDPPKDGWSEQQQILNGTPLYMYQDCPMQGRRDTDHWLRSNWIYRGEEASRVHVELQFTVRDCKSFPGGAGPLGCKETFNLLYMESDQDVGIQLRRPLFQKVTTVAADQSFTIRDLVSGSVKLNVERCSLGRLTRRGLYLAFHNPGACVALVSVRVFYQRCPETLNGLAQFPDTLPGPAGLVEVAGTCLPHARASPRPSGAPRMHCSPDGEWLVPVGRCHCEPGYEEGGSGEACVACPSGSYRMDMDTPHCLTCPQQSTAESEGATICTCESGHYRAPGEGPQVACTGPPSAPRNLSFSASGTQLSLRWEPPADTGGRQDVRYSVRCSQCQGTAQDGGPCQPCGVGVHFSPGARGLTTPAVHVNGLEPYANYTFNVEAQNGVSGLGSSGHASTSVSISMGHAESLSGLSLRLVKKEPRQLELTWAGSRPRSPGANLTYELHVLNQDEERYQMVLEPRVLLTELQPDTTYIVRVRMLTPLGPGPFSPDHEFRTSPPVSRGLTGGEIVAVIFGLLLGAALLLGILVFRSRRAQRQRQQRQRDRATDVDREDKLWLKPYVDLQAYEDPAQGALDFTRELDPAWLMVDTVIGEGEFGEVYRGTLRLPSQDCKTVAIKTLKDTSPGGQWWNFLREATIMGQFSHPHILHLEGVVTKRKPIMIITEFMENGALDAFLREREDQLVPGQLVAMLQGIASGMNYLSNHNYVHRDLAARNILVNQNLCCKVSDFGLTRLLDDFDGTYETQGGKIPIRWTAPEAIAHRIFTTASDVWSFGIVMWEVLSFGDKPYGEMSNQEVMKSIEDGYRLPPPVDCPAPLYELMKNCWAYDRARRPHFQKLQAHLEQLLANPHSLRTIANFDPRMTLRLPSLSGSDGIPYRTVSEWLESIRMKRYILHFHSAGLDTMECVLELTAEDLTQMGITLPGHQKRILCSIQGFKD

[4] = target: kinases (KINOMEscan panel) (Homo sapiens, UniProt P00519, F317I); details: NEW KINOMEscan; for KINOMEscan ABL1(F317I)-phosphorylated: kinase ABL1(F317I)-phosphorylated
[5] = target: kinases (KINOMEscan panel) (Homo sapiens, UniProt O94921); details: NEW KINOMEscan
[6] = target: T2, kinases (KINOMEscan panel) (Homo sapiens, UniProt Q09013); details: kinase DMPK; NEW KINOMEscan
T2 sequence (Q09013 1-629): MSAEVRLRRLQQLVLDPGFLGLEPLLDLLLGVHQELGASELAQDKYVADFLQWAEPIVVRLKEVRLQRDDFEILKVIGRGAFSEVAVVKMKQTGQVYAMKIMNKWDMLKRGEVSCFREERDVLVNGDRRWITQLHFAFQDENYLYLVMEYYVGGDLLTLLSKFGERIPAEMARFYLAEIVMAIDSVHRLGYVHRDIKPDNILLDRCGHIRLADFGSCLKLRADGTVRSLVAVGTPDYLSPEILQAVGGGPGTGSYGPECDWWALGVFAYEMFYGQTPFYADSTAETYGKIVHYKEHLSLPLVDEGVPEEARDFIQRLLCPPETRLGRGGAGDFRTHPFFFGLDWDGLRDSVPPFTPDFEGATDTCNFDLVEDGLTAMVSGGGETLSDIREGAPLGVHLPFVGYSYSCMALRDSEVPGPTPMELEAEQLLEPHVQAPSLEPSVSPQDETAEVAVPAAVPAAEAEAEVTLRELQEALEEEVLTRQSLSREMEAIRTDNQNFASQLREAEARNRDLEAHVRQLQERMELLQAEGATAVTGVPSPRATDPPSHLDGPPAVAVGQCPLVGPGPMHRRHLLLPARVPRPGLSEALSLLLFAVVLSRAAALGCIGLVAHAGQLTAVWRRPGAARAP

[7] = target: kinases (KINOMEscan panel) (Homo sapiens, UniProt P43405); details: SYK; NEW KINOMEscan
[8] = target: kinases (KINOMEscan panel) (Homo sapiens, UniProt Q9UKE5); details: TNIK; NEW KINOMEscan
[9] = target: kinases (KINOMEscan panel) (Homo sapiens, UniProt P35590); details: TIE1; NEW KINOMEscan
[10] = target: T3, kinases (KINOMEscan panel) (Homo sapiens, UniProt Q9UPZ9); details: CILK1; NEW KINOMEscan
T3 sequence (Q9UPZ9 1-632): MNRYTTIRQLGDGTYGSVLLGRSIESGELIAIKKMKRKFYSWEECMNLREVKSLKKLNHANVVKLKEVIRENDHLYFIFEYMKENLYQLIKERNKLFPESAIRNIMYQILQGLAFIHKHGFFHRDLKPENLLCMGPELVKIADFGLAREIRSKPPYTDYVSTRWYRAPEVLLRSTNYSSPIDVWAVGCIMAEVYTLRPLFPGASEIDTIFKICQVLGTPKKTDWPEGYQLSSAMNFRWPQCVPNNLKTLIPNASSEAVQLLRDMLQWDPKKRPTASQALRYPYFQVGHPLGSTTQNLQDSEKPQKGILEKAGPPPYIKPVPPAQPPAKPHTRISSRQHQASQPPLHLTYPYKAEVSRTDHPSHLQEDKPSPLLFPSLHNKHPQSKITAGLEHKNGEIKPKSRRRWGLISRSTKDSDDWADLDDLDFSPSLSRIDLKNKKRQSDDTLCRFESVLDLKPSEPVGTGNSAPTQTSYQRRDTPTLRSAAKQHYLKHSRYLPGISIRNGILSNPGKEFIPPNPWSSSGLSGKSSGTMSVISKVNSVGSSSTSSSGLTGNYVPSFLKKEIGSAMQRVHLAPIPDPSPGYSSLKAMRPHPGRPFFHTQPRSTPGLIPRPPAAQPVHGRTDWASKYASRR

[11] = target: kinases (KINOMEscan panel) (Homo sapiens, UniProt O43293); details: DAPK3; NEW KINOMEscan

Chain of kinases (KINOMEscan panel) (Homo sapiens, UniProt P00519, F317I) (P00519 whole entry F317I): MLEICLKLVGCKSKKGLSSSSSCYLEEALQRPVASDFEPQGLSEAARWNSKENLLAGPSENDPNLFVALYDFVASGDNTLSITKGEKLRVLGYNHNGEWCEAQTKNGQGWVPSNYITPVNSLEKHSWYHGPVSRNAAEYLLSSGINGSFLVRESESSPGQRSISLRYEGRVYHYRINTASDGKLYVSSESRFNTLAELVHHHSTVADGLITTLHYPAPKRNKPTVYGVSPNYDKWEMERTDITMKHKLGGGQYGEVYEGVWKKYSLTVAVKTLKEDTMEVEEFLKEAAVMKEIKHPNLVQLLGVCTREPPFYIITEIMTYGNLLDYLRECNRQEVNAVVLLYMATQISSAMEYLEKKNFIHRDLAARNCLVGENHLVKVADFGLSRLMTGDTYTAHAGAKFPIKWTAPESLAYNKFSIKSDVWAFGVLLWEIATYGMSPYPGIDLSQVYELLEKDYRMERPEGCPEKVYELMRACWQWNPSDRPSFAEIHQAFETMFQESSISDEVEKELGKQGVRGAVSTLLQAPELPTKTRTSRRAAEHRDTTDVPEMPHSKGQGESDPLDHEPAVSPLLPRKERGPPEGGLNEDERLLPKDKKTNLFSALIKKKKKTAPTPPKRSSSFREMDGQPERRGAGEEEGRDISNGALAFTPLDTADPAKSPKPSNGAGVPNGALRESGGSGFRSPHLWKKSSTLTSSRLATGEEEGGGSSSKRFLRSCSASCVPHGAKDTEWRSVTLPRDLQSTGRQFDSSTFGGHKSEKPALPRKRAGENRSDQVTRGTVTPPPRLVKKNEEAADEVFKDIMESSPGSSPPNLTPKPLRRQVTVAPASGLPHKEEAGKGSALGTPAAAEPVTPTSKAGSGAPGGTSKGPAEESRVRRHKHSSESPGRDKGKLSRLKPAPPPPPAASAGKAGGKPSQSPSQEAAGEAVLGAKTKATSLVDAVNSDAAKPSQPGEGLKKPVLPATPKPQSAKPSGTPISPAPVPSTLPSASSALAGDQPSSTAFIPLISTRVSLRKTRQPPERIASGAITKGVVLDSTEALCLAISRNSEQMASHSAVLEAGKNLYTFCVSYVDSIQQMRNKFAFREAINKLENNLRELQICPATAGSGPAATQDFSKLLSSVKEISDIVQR
Chain of kinases (KINOMEscan panel) (Homo sapiens, UniProt O43683) (O43683 whole entry): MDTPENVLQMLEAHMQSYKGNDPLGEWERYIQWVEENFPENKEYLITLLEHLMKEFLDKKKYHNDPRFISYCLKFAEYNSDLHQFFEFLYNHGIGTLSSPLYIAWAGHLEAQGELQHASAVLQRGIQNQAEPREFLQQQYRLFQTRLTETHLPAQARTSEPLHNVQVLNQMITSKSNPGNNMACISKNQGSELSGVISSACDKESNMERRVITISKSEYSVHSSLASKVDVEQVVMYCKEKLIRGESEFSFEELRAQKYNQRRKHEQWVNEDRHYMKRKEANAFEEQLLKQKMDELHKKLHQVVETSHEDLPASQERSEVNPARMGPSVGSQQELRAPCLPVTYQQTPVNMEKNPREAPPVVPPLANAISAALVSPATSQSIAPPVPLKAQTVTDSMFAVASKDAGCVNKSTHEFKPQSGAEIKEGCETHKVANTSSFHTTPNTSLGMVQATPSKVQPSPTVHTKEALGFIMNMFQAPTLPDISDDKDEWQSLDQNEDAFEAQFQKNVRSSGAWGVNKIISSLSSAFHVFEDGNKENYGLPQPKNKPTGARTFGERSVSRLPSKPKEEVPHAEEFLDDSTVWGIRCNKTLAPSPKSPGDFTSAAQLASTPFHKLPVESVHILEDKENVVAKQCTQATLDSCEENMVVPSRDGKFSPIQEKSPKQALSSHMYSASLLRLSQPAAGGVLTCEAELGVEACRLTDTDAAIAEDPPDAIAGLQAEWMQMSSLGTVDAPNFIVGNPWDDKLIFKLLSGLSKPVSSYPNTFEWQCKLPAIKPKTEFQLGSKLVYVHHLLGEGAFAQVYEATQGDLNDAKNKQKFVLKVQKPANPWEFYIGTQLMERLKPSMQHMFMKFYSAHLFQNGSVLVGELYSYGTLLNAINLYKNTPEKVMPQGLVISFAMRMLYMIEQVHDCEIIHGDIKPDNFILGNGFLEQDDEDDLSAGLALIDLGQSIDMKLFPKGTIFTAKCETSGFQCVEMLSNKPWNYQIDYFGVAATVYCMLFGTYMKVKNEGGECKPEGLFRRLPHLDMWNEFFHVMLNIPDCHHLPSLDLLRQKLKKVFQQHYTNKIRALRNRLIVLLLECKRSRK
Chain of kinases (KINOMEscan panel) (Homo sapiens, UniProt Q9UKE5) (Q9UKE5 whole entry): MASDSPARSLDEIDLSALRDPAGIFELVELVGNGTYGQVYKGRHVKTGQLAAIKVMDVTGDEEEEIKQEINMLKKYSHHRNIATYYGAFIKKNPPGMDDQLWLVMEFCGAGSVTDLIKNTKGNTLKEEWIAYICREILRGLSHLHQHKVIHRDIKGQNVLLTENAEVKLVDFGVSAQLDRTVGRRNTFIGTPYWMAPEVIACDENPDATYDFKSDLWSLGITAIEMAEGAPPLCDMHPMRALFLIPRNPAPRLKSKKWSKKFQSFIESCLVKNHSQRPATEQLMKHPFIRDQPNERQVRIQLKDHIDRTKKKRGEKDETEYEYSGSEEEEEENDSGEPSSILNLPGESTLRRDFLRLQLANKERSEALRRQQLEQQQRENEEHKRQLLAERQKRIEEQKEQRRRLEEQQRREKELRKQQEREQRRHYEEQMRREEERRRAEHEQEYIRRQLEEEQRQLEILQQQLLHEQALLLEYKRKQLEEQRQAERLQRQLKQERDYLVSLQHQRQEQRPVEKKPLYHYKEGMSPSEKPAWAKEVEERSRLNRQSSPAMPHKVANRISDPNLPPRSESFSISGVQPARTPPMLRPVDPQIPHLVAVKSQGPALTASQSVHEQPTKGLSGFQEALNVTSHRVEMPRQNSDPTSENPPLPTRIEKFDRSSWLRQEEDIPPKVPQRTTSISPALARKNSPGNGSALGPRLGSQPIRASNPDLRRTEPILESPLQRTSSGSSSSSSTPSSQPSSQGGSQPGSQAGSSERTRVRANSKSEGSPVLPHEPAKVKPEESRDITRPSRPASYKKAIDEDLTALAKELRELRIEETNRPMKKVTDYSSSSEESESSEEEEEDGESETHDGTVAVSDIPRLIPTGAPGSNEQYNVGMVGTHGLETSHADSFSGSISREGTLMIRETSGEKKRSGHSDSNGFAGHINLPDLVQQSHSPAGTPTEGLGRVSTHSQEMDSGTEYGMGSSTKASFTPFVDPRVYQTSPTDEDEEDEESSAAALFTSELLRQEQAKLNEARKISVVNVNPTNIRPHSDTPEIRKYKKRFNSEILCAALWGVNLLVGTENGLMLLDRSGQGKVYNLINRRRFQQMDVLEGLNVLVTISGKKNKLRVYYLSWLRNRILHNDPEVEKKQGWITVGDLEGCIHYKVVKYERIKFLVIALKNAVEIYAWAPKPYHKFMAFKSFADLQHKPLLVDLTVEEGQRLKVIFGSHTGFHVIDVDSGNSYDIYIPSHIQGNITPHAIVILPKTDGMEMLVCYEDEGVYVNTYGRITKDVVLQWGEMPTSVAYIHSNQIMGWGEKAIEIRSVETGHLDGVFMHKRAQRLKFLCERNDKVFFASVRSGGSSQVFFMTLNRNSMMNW
Chain of kinases (KINOMEscan panel) (Homo sapiens, UniProt P35590) (P35590 22-1138): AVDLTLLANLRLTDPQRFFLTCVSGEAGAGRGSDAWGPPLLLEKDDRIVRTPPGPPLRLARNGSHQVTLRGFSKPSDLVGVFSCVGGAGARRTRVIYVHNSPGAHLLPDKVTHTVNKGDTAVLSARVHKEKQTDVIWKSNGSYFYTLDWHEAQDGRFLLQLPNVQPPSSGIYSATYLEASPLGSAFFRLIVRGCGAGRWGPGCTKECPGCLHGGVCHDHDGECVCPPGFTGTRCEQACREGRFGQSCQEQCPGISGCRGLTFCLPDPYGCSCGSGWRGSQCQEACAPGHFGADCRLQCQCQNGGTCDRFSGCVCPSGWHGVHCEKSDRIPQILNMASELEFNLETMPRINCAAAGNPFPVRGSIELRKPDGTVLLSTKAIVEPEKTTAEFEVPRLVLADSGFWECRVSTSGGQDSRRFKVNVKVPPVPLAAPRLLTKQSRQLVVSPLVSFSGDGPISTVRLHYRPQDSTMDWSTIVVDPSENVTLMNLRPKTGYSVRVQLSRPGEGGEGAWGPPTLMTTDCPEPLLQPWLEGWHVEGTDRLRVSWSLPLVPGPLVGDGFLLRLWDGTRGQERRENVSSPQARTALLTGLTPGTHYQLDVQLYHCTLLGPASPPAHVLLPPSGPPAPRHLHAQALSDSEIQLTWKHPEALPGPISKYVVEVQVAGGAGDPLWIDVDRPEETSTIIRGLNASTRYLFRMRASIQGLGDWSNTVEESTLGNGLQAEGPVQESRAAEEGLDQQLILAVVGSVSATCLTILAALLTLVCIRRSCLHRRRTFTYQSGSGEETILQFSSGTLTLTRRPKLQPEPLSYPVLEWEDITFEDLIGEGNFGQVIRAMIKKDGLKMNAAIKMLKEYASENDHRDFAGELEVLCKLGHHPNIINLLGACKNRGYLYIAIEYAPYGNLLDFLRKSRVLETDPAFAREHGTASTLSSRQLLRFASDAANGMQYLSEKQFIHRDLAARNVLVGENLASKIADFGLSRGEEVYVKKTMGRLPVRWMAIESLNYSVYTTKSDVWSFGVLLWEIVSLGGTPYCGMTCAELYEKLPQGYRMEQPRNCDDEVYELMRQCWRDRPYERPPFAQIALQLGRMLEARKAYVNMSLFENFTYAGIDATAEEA

Row | Structure (SMILES) | KINOMEscan BUB1 [1] | KINOMEscan MARK3 [2] | KINOMEscan EPHA1 [3] | KINOMEscan ABL1(F317I)-nonphosphorylated [4] | KINOMEscan ABL1(F317I)-phosphorylated [4] | KINOMEscan CDK14 [5] | KINOMEscan DMPK [6] | KINOMEscan SYK [7] | KINOMEscan TNIK [8] | KINOMEscan TIE1 [9] | KINOMEscan CILK1 [10] | KINOMEscan DAPK3 [11]
1 | Cc1cccc(-c2nc(Nc3ccc4nn(C)cc4c3)c3ccccc3n2)n1 [NK167] | 0 | 0 | 1 | 0 | 0 | 17 | 0 | 0 | 0 | 0 | 0 | 0
2 | Cc1cccc(-c2nc(N(C)c3ccc4ncsc4c3)c3ccccc3n2)n1 [NK-161] | 0 | 0 | 0 | 9 | 0 | 0 | 0 | 6 | 0 | 0 | 0 | 0
